The source of these data is patent publication US10414740B2, “Glutaminase inhibitors and method of use” (Agios Pharmaceuticals, Inc., priority 2012, dated 2019).

The assay concerns the target T1, glutaminase (GAC) (Homo sapiens, UniProt O94925).
T1 sequence (O94925 55-598 isoform O94925-3 limits assumed): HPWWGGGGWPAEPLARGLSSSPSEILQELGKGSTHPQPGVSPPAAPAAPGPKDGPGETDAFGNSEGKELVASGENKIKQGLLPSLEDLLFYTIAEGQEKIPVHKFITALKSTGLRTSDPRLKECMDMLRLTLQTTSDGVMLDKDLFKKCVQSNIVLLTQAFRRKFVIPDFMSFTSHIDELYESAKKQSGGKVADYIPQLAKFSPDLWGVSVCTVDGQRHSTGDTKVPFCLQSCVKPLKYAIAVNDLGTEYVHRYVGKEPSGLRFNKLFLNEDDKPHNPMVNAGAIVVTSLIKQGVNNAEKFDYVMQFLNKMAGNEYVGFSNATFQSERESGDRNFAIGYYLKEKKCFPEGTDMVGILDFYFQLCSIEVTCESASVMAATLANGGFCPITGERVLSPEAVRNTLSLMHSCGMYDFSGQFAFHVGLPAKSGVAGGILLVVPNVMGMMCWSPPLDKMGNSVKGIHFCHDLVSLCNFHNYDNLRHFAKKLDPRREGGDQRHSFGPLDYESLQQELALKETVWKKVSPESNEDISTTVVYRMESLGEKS
As to the kind of experiment: glutaminase coupled endpoint assay (Example A). It is filed as biochemical. To be noted: inhibition of glutaminase; IC50 tested in an assay of Example A or Example B. The protocol: In this example, the enzymatic activity of glutaminase is measured through a coupled endpoint assay. […] The glutamate produced is converted to 2-OG by a kinetic excess of glutamate dehydrogenase. […] However, a kinetic excess of the third coupling enzyme, diaphorase, recycles NAD from NADH to keep the NAD concentration constant during the timecourse of the assay. Diaphorase, also supplied in kinetic excess, oxidizes NADH produced by GDH back to NAD with the concomitant reduction of rezasurin to the highly fluorescent resorufin. […] A reduction in the signal indicates inhibition of some component of the coupled enzyme system. Prospective hits are counterscreened against GDH/diaphorase alone to remove hits to the coupling enzyme system in a second assay.
2. […] Add 1 μl a compound in 100% DMSO 2. Add 40 μl of Enzyme Mix and incubate for 60 minute at room temperature 3. Add 10 μl of Substrate Mix to start reaction 4.
`O=C(CCc1cccnc1)Nc1nnc(CCS(=O)(=O)CCc2nnc(NC(=O)CCc3cccnc3)s2)s1` [Compound 35] gave an IC50 of 100 to 500 nM.

For the compound `NCCCOc1ccc(CC(=O)Nc2nnc(CCS(=O)(=O)CCc3nnc(NC(=O)Cc4ccccc4)s3)s2)cc1` [Compound 36, 2-(4-(3-aminopropoxy)phenyl)-N-(5-(2-((2-(5-(2-phenylacetamido)-1,3,4-thiadiazol-2-yl)ethyl)sulfonyl)ethyl)-1,3,4-thiadiazol-2-yl)acetamide], the IC50 is under 100 nM.

In the case of `O=C(Cc1ccc(O)cc1)Nc1nnc(CCCCc2nnc(NC(=O)Cc3ccc(O)cc3)s2)s1` [Compound 38, N,N′-(5,5′-(butane-1,4-diyl)bis(1,3,4-thiadiazole-5,2-diyl))bis(2-(4-hydroxyphenyl)acetamide)], the IC50 lay within 100 to 500 nM.

Take `O=C(CCCC(=O)c1ccccc1)Nc1nnc(CCCCc2nnc(NC(=O)CCCC(=O)c3ccccc3)s2)s1` [Compound 40, N,N′-(5,5′-(butane-1,4-diyl)bis(1,3,4-thiadiazole-5,2-diyl))bis(5-oxo-5-phenylpentanamide)]: the IC50 was under 100 nM.

With `Cn1c(=O)c2c(ncn2CC(=O)Nc2nnc(CCCCc3nnc(NC(=O)Cn4cnc5c4c(=O)n(C)c(=O)n5C)s3)s2)n(C)c1=O` [Compound 41], the IC50 is 1000 to 10000 nM.

`Cc1cc(CC(=O)Nc2nnc(CCCCc3nnc(NC(=O)Cc4cc(C)no4)s3)s2)on1` [Compound 42, N,N′-(5,5′-(butane-1,4-diyl)bis(1,3,4-thiadiazole-5,2-diyl))bis(2-(3-methylisoxazol-5-yl)acetamide)] had an IC50 of 100 to 500 nM.

In the case of `COc1ccc2c(c1)C(CC(=O)Nc1nnc(CCCCc3nnc(NC(=O)CC4CC(=O)c5ccc(OC)cc54)s3)s1)CC2=O` (stereo not drawn) [Compound 43, N,N′-(5,5′-(butane-1,4-diyl)bis(1,3,4-thiadiazole-5,2-diyl))bis(2-(6-methoxy-3-oxo-2,3-dihydro-1H-inden-1-yl)acetamide)], the IC50 was in the range of 100 to 500 nM.

As for `Nc1nnc(CCCCc2nnc(NC(=O)CCc3ccccc3O)s2)s1` [Compound 44], the IC50 was 1000 to 10000 nM.

Compound `O=C(CCc1ccccc1O)Nc1nnc(CCCCc2nnc(NC(=O)CCc3ccccc3O)s2)s1` [Compound 45] returned an IC50 of under 100 nM.

`CN(CC(=O)Nc1nnc(CCCCc2nnc(NC(=O)CN(C)C(=O)OC(C)(C)C)s2)s1)C(=O)OC(C)(C)C` [Compound 46, Di-tert-butyl 2,2′-(5,5′-(butane-1,4-diyl)bis(1,3,4-thiadiazole-5,2-diyl))bis(azanediyl)bis(2-oxoethane-2,1-diyl)bis(methylcarbamate)] displayed an IC50 of 100 to 500 nM.

`O=C(Cc1ccccn1)Nc1nnc(CCCCc2nnc(NC(=O)Cc3ccccn3)s2)s1` [Compound 47, N,N′-(5,5′-(butane-1,4-diyl)bis(1,3,4-thiadiazole-5,2-diyl))bis(2-(pyridin-2-yl)acetamide)]: the IC50 is under 100 nM.

In turn, `O=C(Cc1ccccc1)Nc1nnc(CCSCc2nnc(NC(=O)Cc3ccccc3)s2)s1` [Compound 48] had an IC50 of under 100 nM.

In turn, `O=C(CCc1ccco1)Nc1nnc(CCCCc2nnc(NC(=O)CCc3ccco3)s2)s1` [Compound 49, N,N′-(5,5′-(butane-1,4-diyl)bis(1,3,4-thiadiazole-5,2-diyl))bis(3-(furan-2-yl)propanamide)] had an IC50 of 100 to 500 nM.

The compound `CC(C(=O)Nc1nnc(CCCCc2nnc(NC(=O)C(C)c3ccc(N4Cc5ccccc5C4=O)cc3)s2)s1)c1ccc(N2Cc3ccccc3C2=O)cc1` (stereo not drawn) [Compound 50, N,N′-(5,5′-(butane-1,4-diyl)bis(1,3,4-thiadiazole-5,2-diyl))bis(2-(4-(1-oxoisoindolin-2-yl)phenyl)propanamide)] gave an IC50 of 100 to 500 nM.

In turn, `O=C(Cc1cccc2ccccc12)Nc1nnc(CCCCc2nnc(NC(=O)Cc3cccc4ccccc34)s2)s1` [Compound 51, N,N′-(5,5′-(butane-1,4-diyl)bis(1,3,4-thiadiazole-5,2-diyl))bis(2-(naphthalen-1-yl)acetamide)] came in with an IC50 of 100 to 500 nM.
